Organism: Rattus norvegicus
Assay: Open TG-GATES - Regimen: Single
Format: toxicity, organism-based, Sprague-Dawley
Set-up: regimen Single, gender Male, age 6 weeks
Conditions: in vivo, iv, route intravenous injection; for MCV / Mono / Neu / PT / Plat / RBC / Ret / WBC / APTT / Bas / Eos / Fbg / Ht / Lym / Hb / MCH / MCHC: tissue Blood; for KIDNEY_L / KIDNEY_R / KIDNEY_TOTAL: tissue Kidney; for LIVER: tissue Liver
[1] = 30 mg/kg, 3 h, dose level Middle
[2] = 30 mg/kg, 3 h, tissue Plasma, dose level Middle
[3] = 30 mg/kg, 6 h, dose level Middle
[4] = 30 mg/kg, 6 h, tissue Plasma, dose level Middle
[5] = 30 mg/kg, 9 h, dose level Middle
[6] = 30 mg/kg, 9 h, tissue Plasma, dose level Middle
[7] = 30 mg/kg, 24 h, dose level Middle
[8] = 30 mg/kg, 24 h, tissue Plasma, dose level Middle
[9] = 100 mg/kg, 3 h, dose level High
[10] = 100 mg/kg, 3 h, tissue Plasma, dose level High
[11] = 100 mg/kg, 6 h, dose level High
[12] = 100 mg/kg, 6 h, tissue Plasma, dose level High
[13] = 100 mg/kg, 9 h, dose level High
[14] = 100 mg/kg, 9 h, tissue Plasma, dose level High
[15] = 100 mg/kg, 24 h, dose level High
[16] = 100 mg/kg, 24 h, tissue Plasma, dose level High

Sequence: GENTAMICIN
- MCV [1]: 62.9 fL
- Mono [1]: 3.2%
- Neu [1]: 16.4%
- PT [1]: 16.2 s
- Plat [1]: 131.2 x10_4/uL
- RBC [1]: 626.2 x10_4/ul
- Ret [1]: 6.5%
- WBC [1]: 81.8 x10_2/uL
- KIDNEY_L [1]: 0.9 g
- KIDNEY_R [1]: 0.9 g
- KIDNEY_TOTAL [1]: 1.8 g
- LIVER [1]: 9.6 g
- ALT [2]: 42.6 IU/L
- AST [2]: 82.2 IU/L
- CRE [2]: 0.1 mg/dL
- DBIL [2]: 0.004 mg/dL
- GLC [2]: 182 mg/dL
- IP [2]: 8.1 mg/dL
- K [2]: 4.3 meq/L
- LDH [2]: 251.4 IU/L
- PL [2]: 133.2 mg/dL
- RALB [2]: 2.9 g/dL
- TBIL [2]: 0.02 mg/dL
- TC [2]: 62.4 mg/dL
- TG [2]: 99.2 mg/dL
- TP [2]: 5.3 g/dL
- gamma-GTP [2]: 1.4 IU/L
- TERMINAL_BW [3]: 210.3 g
- APTT [3]: 23.2 s
- Bas [3]: 0%
- Eos [3]: 0.4%
- Fbg [3]: 291.6 mg/dL
- Ht [3]: 39.5%
- Lym [3]: 77.6%
- MCV [3]: 62 fL
- Mono [3]: 3.4%
- PT [3]: 16 s
- Plat [3]: 119.1 x10_4/uL
- RBC [3]: 636.4 x10_4/ul
- Ret [3]: 6.3%
- WBC [3]: 117 x10_2/uL
- KIDNEY_L [3]: 0.9 g
- KIDNEY_R [3]: 1 g
- KIDNEY_TOTAL [3]: 1.9 g
- LIVER [3]: 8.7 g
- ALP [4]: 1316 IU/L
- ALT [4]: 35 IU/L
- AST [4]: 68.8 IU/L
- BUN [4]: 9.4 mg/dL
- CRE [4]: 0.1 mg/dL
- DBIL [4]: 0.002 mg/dL
- GLC [4]: 177.2 mg/dL
- IP [4]: 9 mg/dL
- K [4]: 4.3 meq/L
- PL [4]: 139.4 mg/dL
- RALB [4]: 3 g/dL
- TBIL [4]: 0.024 mg/dL
- TC [4]: 74.6 mg/dL
- TG [4]: 84.4 mg/dL
- TP [4]: 5.3 g/dL
- gamma-GTP [4]: 1 IU/L
- TERMINAL_BW [5]: 213 g
- APTT [5]: 24 s
- Bas [5]: 0%
- Eos [5]: 1%
- Fbg [5]: 294.6 mg/dL
- Hb [5]: 13 g/dL
- Ht [5]: 38.6%
- Lym [5]: 77.4%
- MCH [5]: 21 pg
- MCHC [5]: 33.6%
- Mono [5]: 3%
- Neu [5]: 17.2%
- PT [5]: 16.2 s
- Plat [5]: 122.8 x10_4/uL
- RBC [5]: 617.4 x10_4/ul
- Ret [5]: 5.8%
- WBC [5]: 109.5 x10_2/uL
- KIDNEY_L [5]: 1 g
- KIDNEY_R [5]: 1 g
- KIDNEY_TOTAL [5]: 2 g
- LIVER [5]: 8.5 g
- ALP [6]: 1266.6 IU/L
- ALT [6]: 34.4 IU/L
- AST [6]: 72 IU/L
- BUN [6]: 10.8 mg/dL
- CRE [6]: 0.1 mg/dL
- DBIL [6]: 0.002 mg/dL
- GLC [6]: 175.2 mg/dL
- IP [6]: 9.5 mg/dL
- K [6]: 4.4 meq/L
- LDH [6]: 134.6 IU/L
- Na [6]: 144.2 meq/L
- PL [6]: 134.2 mg/dL
- RALB [6]: 2.9 g/dL
- TBIL [6]: 0.022 mg/dL
- TC [6]: 73.8 mg/dL
- TG [6]: 49.4 mg/dL
- TP [6]: 5.2 g/dL
- gamma-GTP [6]: 1.6 IU/L
- TERMINAL_BW [7]: 228.1 g
- APTT [7]: 22.7 s
- Bas [7]: 0%
- Eos [7]: 0.8%
- Fbg [7]: 295.4 mg/dL
- Hb [7]: 12.9 g/dL
- Ht [7]: 38%
- Lym [7]: 76.6%
- MCHC [7]: 34%
- MCV [7]: 61.3 fL
- Mono [7]: 4%
- Neu [7]: 18%
- PT [7]: 16.4 s
- Plat [7]: 115.7 x10_4/uL
- RBC [7]: 621.4 x10_4/ul
- Ret [7]: 6%
- WBC [7]: 112.3 x10_2/uL
- KIDNEY_L [7]: 1 g
- KIDNEY_R [7]: 1 g
- KIDNEY_TOTAL [7]: 2 g
- LIVER [7]: 10.2 g
- ALP [8]: 1367.4 IU/L
- ALT [8]: 41.4 IU/L
- BUN [8]: 15.6 mg/dL
- CRE [8]: 0.2 mg/dL
- DBIL [8]: 0.004 mg/dL
- IP [8]: 7.2 mg/dL
- K [8]: 4.1 meq/L
- LDH [8]: 137.2 IU/L
- PL [8]: 153.2 mg/dL
- RALB [8]: 3 g/dL
- TBIL [8]: 0.02 mg/dL
- TC [8]: 81.4 mg/dL
- TG [8]: 101.6 mg/dL
- TP [8]: 5.4 g/dL
- gamma-GTP [8]: 1 IU/L
- TERMINAL_BW [9]: 221.2 g
- APTT [9]: 22.7 s
- Bas [9]: 0%
- Eos [9]: 1%
- Fbg [9]: 284 mg/dL
- Ht [9]: 37.3%
- Lym [9]: 72%
- MCV [9]: 63.9 fL
- Mono [9]: 3%
- Neu [9]: 23.3%
- Plat [9]: 123.5 x10_4/uL
- RBC [9]: 584 x10_4/ul
- Ret [9]: 6.4%
- WBC [9]: 86 x10_2/uL
- KIDNEY_L [9]: 1 g
- KIDNEY_R [9]: 1 g
- KIDNEY_TOTAL [9]: 1.9 g
- LIVER [9]: 9.9 g
- ALP [10]: 1392.3 IU/L
- ALT [10]: 41.3 IU/L
- AST [10]: 82.7 IU/L
- BUN [10]: 13 mg/dL
- CRE [10]: 0.1 mg/dL
- Ca [10]: 11 mg/dL
- DBIL [10]: 0.0067 mg/dL
- GLC [10]: 177.3 mg/dL
- IP [10]: 7.9 mg/dL
- K [10]: 4.1 meq/L
- LDH [10]: 155.3 IU/L
- PL [10]: 129.7 mg/dL
- RALB [10]: 2.8 g/dL
- TBIL [10]: 0.03 mg/dL
- TC [10]: 69.3 mg/dL
- TG [10]: 71.7 mg/dL
- TP [10]: 5.2 g/dL
- gamma-GTP [10]: 1 IU/L
- TERMINAL_BW [11]: 211.7 g
- APTT [11]: 24.2 s
- Bas [11]: 0%
- Eos [11]: 0.8%
- Fbg [11]: 292 mg/dL
- Ht [11]: 39.4%
- Lym [11]: 74.2%
- MCH [11]: 21 pg
- MCHC [11]: 33.9%
- MCV [11]: 61.9 fL
- Mono [11]: 3.6%
- Neu [11]: 20.6%
- PT [11]: 15.9 s
- Plat [11]: 126.2 x10_4/uL
- RBC [11]: 637 x10_4/ul
- Ret [11]: 6.6%
- WBC [11]: 92.6 x10_2/uL
- KIDNEY_L [11]: 0.9 g
- KIDNEY_R [11]: 0.9 g
- KIDNEY_TOTAL [11]: 1.8 g
- LIVER [11]: 8.4 g
- ALP [12]: 1407.2 IU/L
- ALT [12]: 34.8 IU/L
- AST [12]: 67.6 IU/L
- CRE [12]: 0.1 mg/dL
- DBIL [12]: 0.004 mg/dL
- GLC [12]: 176.2 mg/dL
- IP [12]: 9 mg/dL
- K [12]: 4.7 meq/L
- LDH [12]: 165.8 IU/L
- PL [12]: 144.4 mg/dL
- RALB [12]: 2.9 g/dL
- TBIL [12]: 0.02 mg/dL
- TG [12]: 98.6 mg/dL
- TP [12]: 5.2 g/dL
- gamma-GTP [12]: 1.2 IU/L
- TERMINAL_BW [13]: 211.4 g
- APTT [13]: 22.4 s
- Bas [13]: 0%
- Eos [13]: 0.8%
- Fbg [13]: 296.4 mg/dL
- Hb [13]: 12.9 g/dL
- Ht [13]: 38.7%
- Lym [13]: 80.6%
- MCH [13]: 20.6 pg
- MCHC [13]: 33.3%
- MCV [13]: 61.9 fL
- Mono [13]: 3.2%
- Plat [13]: 120.1 x10_4/uL
- RBC [13]: 625.2 x10_4/ul
- Ret [13]: 6.4%
- WBC [13]: 76.1 x10_2/uL
- KIDNEY_L [13]: 0.9 g
- KIDNEY_R [13]: 1 g
- KIDNEY_TOTAL [13]: 1.9 g
- LIVER [13]: 8.6 g
- ALP [14]: 1221 IU/L
- ALT [14]: 30.8 IU/L
- AST [14]: 65.6 IU/L
- BUN [14]: 12.8 mg/dL
- CRE [14]: 0.1 mg/dL
- Ca [14]: 11 mg/dL
- DBIL [14]: 0.002 mg/dL
- GLC [14]: 174.6 mg/dL
- IP [14]: 9.4 mg/dL
- K [14]: 4.7 meq/L
- LDH [14]: 145.2 IU/L
- PL [14]: 144 mg/dL
- RALB [14]: 2.9 g/dL
- TBIL [14]: 0.016 mg/dL
- TC [14]: 77 mg/dL
- TG [14]: 70.4 mg/dL
- TP [14]: 5.3 g/dL
- gamma-GTP [14]: 1 IU/L
- TERMINAL_BW [15]: 225.5 g
- APTT [15]: 23.2 s
- Bas [15]: 0%
- Eos [15]: 1%
- Fbg [15]: 301.2 mg/dL
- Hb [15]: 13.6 g/dL
- Ht [15]: 39.5%
- Lym [15]: 77.4%
- MCHC [15]: 34.4%
- MCV [15]: 60.8 fL
- Mono [15]: 4.8%
- PT [15]: 16.4 s
- Plat [15]: 122.8 x10_4/uL
- RBC [15]: 649.4 x10_4/ul
- Ret [15]: 5.4%
- WBC [15]: 96.8 x10_2/uL
- KIDNEY_L [15]: 1 g
- KIDNEY_R [15]: 1 g
- KIDNEY_TOTAL [15]: 2 g
- LIVER [15]: 9.6 g
- ALP [16]: 1293.2 IU/L
- ALT [16]: 37.8 IU/L
- AST [16]: 66.4 IU/L
- CRE [16]: 0.1 mg/dL
- DBIL [16]: 0.002 mg/dL
- GLC [16]: 186.4 mg/dL
- IP [16]: 7.7 mg/dL
- K [16]: 4.2 meq/L
- LDH [16]: 159.2 IU/L
- PL [16]: 162.4 mg/dL
- RALB [16]: 3.1 g/dL
- TBIL [16]: 0.018 mg/dL
- TC [16]: 82.4 mg/dL
- TG [16]: 110.2 mg/dL
- TP [16]: 5.5 g/dL
- gamma-GTP [16]: 1.2 IU/L

From ChEMBL document CHEMBL3885861, “Open TG-GATES”
